Experimental data published in the NIST ThermoML archive (doi:10.1016/j.jct.2013.05.051).

Experiment: xn = mol fraction of the nth substance listed
Conditions: Liquid, Vibrating tube method

CCCCCCCO [heptan-1-ol] + CCCCCCC
mass density [kg/m3]
Conditions	x1 = 0.1493	x1 = 0.3215	x1 = 0.5226	x1 = 0.6698	x1 = 0.8469	x1 = 1
333.15 K, 140000 kPa	–	779.8	804.5	823.2	851.4	864.3
353.15 K, 100 kPa	654.4	676.1	705.8	728.5	762.3	778.1
353.15 K, 1000 kPa	655.7	677.3	706.8	729.4	763.1	778.8
353.15 K, 5000 kPa	661.2	682.2	711.3	733.6	766.7	782.3
353.15 K, 10000 kPa	667.4	687.9	716.4	738.3	771	786.3
353.15 K, 15000 kPa	673.1	693.2	721.3	742.9	775.2	790.2
353.15 K, 20000 kPa	678.4	698.2	725.8	747.1	779	793.9
353.15 K, 25000 kPa	683.2	702.8	730.1	751.1	782.7	797.3
353.15 K, 30000 kPa	687.9	707.1	734.2	755	786.3	800.7
353.15 K, 35000 kPa	692.2	711.1	738	758.6	789.6	804
353.15 K, 40000 kPa	696.2	715	741.6	762	792.8	807.1
353.15 K, 45000 kPa	700.2	718.7	745.1	765.4	795.9	810
353.15 K, 50000 kPa	704	722.4	748.5	768.7	799	813
353.15 K, 55000 kPa	707.5	725.7	751.7	771.8	801.9	815.8
353.15 K, 60000 kPa	711	729	754.9	774.8	804.7	818.6
353.15 K, 65000 kPa	714.3	732.2	757.9	777.7	807.5	821.2
353.15 K, 70000 kPa	717.5	735.2	760.9	780.5	810.2	823.8
353.15 K, 80000 kPa	723.5	–	–	–	–	–
